Measured values taken from article PMC10666288, “Unveiling the Catalytic Mechanism of a Processive Metalloaminopeptidase” (Biochemistry, 2023).

Biological target: PaPepA (Pseudomonas aeruginosa, UniProt Q02RY8)
Assay: Solvent kinetic isotope effects
Type: biochemical
Design: GG stays after cleavage) (N); made in house; host or cells: E. coli BL21(DE3)
Details: H2O vs 80% D2O, metal varied, Leu-pNA fixed, pH 8.0
Protocol: SKIEs were determined by plotting saturation curves in H2O or 80% D2O. […] Differences between reaction rates under initial velocity conditions were measured varying the concentration of either Leu-pNA or Mn^2+, while keeping the other component constant and in excess (at least 5× the value of KM or KACT, Scheme 2). Experiments were performed at pH 8.0 (100 mM HEPES, with 50 mM KCl). For proton inventory studies, D2O was varied from 0 to 80% in 10% increments. All proton inventory studies were carried out on the same day by using the same enzyme stock.
When calculating SKIEs, kcat and KM were obtained from the Michaelis–Menten curves in H2O. The 80% D2O Michaelis–Menten curve was fit to the following equation: [drawing 2] 2 where Fi is the fraction D2O, and EV/K and EV are the isotope effects −1 on kcat/KM and kcat, respectively.

PaPepA, sequence (Q02RY8 whole entry): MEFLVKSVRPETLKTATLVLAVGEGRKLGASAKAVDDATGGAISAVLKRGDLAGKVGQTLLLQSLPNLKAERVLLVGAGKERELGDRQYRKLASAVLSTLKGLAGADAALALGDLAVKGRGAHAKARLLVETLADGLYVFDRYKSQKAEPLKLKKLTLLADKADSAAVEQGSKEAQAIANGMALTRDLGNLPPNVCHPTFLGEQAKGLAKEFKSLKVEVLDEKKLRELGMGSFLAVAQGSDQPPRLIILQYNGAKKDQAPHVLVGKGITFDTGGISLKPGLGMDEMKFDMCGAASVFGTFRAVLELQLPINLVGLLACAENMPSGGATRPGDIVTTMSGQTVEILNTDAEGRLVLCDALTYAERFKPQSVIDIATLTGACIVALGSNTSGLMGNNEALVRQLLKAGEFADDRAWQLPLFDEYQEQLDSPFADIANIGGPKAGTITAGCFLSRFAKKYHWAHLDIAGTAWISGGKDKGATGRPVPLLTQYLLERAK

In the case of `[Mn+2]` [Mn^2+], the “^D2Okcat” value is reported as 3.9 ± 0.1 and the “^D2Okcat/KACT” value is reported as 1.9 ± 0.2.
